{
  "source": "patent US20170238571A1",
  "about": "“A SYNERGISTIC COMPOSITION COMPRISING A MIXTURE OF BACTERIA OF THE GENERA LACTOBACILLUS AND PROPIONOBACTERIUM PARTICULARLY USEFUL TO REDUCE OR ELIMINATE PATHOGEN CONTAMINATION IN SOYBEN MEAL AND ITS DERIVATIVES; METHODS AND USES THEREOF” (Molinos Río de la Plata S.A., priority 2014, published 2017)",
  "assay_type_in_all_cases": "cell-based",
  "key": {"[1]": {"system": "Salmonella (S. typhimurium, S. enteritidis, S. heidelberg)", "experiment": "Effectiveness of mixes against Salmonella in soybean meal with 8% DBM", "details": "25° C. - 8% DBM; for Average (n = 3): Salmonella count; for LOG10 (CFU/g): Salmonella", "experimental": "(§1) In order to assess the effectiveness of the mix of the invention in the matrix of interest, an appropriate working protocol was prepared. Initially, 500 g of soybean meal were infected with 50 mL of Salmonella solution whose composition was: 10^6 CFUS. typhimurium/mL, 10^6 CFUS. enteritidis /mLand 10^6 CFUS. heidelberg /mL in equal amounts. […] 50 g of the wet meal obtained (≈25% moisture content on dry basis) were mixed within the dry meal (≈10% moisture content dry basis) and were stirred for 10 minutes. […] Daily determinations of Salmonella colony forming units were performed on this contaminated meal. To this end, 40.5 g of BPW to 4.5 g of the resulting meal were added and vigorously stirred, and then 100μL of this solution, were plated onto Salmonella-Shigella agar (SS Agar). When microorganisms were used in the protecting mixes, concentrations were carefully balanced, and the amount of bacteria added was always the same.\n(§2) In the cases in which solutions with ferments were used for protection purposes, cell concentration was of about 10^8 CFU/mL.\nAfter oil is stripped from the soybean flakes during the extraction process, the latter goes through a desolventizer to evaporate the residual hexane remaining after extraction. This process adds moisture to the flakes, since desolventizing is a process that uses steam. Once the soybean flake is desolventized, it is dried to obtain the desired moisture level. The moisture content assessed on a dry basis of a typical meal product is around 11-12% DBM; however, at present we can find meals on the market with a moisture content ranging from 8-13% DBM. The effectiveness of the mix of the invention was tested in meals with different moisture contents."}, "[2]": {"system": "Salmonella (S. typhimurium, S. enteritidis, S. heidelberg)", "experiment": "Effectiveness of mixes against Salmonella in soybean meal at different temperatures", "details": "for Average (n = 3): Salmonella count; for LOG10 (CFU/g): Salmonella", "experimental": "as §1, §2\nThe following tests were carried out to assess the effectiveness of different mixes under different conditions. To assess extreme temperatures, meal products were stored at 5, 25, and 32° C., after contamination and protection, respectively. Samples were taken every 24 hours and triplicate determinations of Salmonella, lactic and propionic bacteria were made."}, "[3]": {"system": "Aspergillus niger ATCC 16404", "experiment": "Protection against fungi: A. niger in premixed soybean meal", "details": "25° C. - 12% DBM; for Average (n = 3): A. niger count; for LOG10 (CFU/g): A. niger", "experimental": "For the determination of fungal CFU, 20 grams of soybean meal were added to 180 mL of sterile tap water with Tween 80, which was vigorously stirred. Serial dilutions of the sample were carried out in order to perform recounting on the appropriate plates, in a Czapek-Dox agar medium."}},
  "data": [
    {"smiles": "CCC(=O)O", "note": "[Propionic Acid]", "values": [
      {"measurement": "Average (n = 3)", "setting": "[1]; 0 hours", "value": 199.67},
      {"measurement": "Average (n = 3)", "setting": "[1]; 12 hours", "value": 175},
      {"measurement": "Average (n = 3)", "setting": "[1]; 24 hours", "value": 130},
      {"measurement": "Average (n = 3)", "setting": "[1]; 36 hours", "value": 100.33},
      {"measurement": "Average (n = 3)", "setting": "[1]; 48 hours", "value": 90.67},
      {"measurement": "Average (n = 3)", "setting": "[1]; 60 hours", "value": 77},
      {"measurement": "Average (n = 3)", "setting": "[1]; 72 hours", "value": 58},
      {"measurement": "Average (n = 3)", "setting": "[1]; 84 hours", "value": 32.33},
      {"measurement": "Average (n = 3)", "setting": "[1]; 96 hours", "value": 15},
      {"measurement": "LOG10 (CFU/g)", "setting": "[1]; 0 hours", "value": "3.65 LOG10 (CFU/g)"},
      {"measurement": "LOG10 (CFU/g)", "setting": "[1]; 12 hours", "value": "3.59 LOG10 (CFU/g)"},
      {"measurement": "LOG10 (CFU/g)", "setting": "[1]; 24 hours", "value": "3.46 LOG10 (CFU/g)"},
      {"measurement": "LOG10 (CFU/g)", "setting": "[1]; 36 hours", "value": "3.35 LOG10 (CFU/g)"},
      {"measurement": "LOG10 (CFU/g)", "setting": "[1]; 48 hours", "value": "3.30 LOG10 (CFU/g)"},
      {"measurement": "LOG10 (CFU/g)", "setting": "[1]; 60 hours", "value": "3.23 LOG10 (CFU/g)"},
      {"measurement": "LOG10 (CFU/g)", "setting": "[1]; 72 hours", "value": "3.11 LOG10 (CFU/g)"},
      {"measurement": "LOG10 (CFU/g)", "setting": "[1]; 84 hours", "value": "2.85 LOG10 (CFU/g)"},
      {"measurement": "LOG10 (CFU/g)", "setting": "[1]; 96 hours", "value": "2.52 LOG10 (CFU/g)"},
      {"measurement": "Average (n = 3)", "setting": "[2]; 5° C. - 12% DBM, 0 days", "value": 199.76},
      {"measurement": "Average (n = 3)", "setting": "[2]; 5° C. - 12% DBM, 1 day", "value": 165},
      {"measurement": "Average (n = 3)", "setting": "[2]; 5° C. - 12% DBM, 2 days", "value": 131.3},
      {"measurement": "Average (n = 3)", "setting": "[2]; 5° C. - 12% DBM, 3 days", "value": 90.67},
      {"measurement": "Average (n = 3)", "setting": "[2]; 5° C. - 12% DBM, 4 days", "value": 61},
      {"measurement": "Average (n = 3)", "setting": "[2]; 5° C. - 12% DBM, 5 days", "value": 57},
      {"measurement": "Average (n = 3)", "setting": "[2]; 5° C. - 12% DBM, 6 days", "value": 38},
      {"measurement": "Average (n = 3)", "setting": "[2]; 25° C. - 12% DBM, 0 days", "value": 199.67},
      {"measurement": "Average (n = 3)", "setting": "[2]; 25° C. - 12% DBM, 1 day", "value": 145.33},
      {"measurement": "Average (n = 3)", "setting": "[2]; 25° C. - 12% DBM, 2 days", "value": 110},
      {"measurement": "Average (n = 3)", "setting": "[2]; 25° C. - 12% DBM, 3 days", "value": 90},
      {"measurement": "Average (n = 3)", "setting": "[2]; 25° C. - 12% DBM, 4 days", "value": 60.67},
      {"measurement": "Average (n = 3)", "setting": "[2]; 25° C. - 12% DBM, 5 days", "value": 57},
      {"measurement": "Average (n = 3)", "setting": "[2]; 25° C. - 12% DBM, 6 days", "value": 38},
      {"measurement": "Average (n = 3)", "setting": "[2]; 32° C. - 12% DBM, 0 days", "value": 199.67},
      {"measurement": "Average (n = 3)", "setting": "[2]; 32° C. - 12% DBM, 1 day", "value": 175},
      {"measurement": "Average (n = 3)", "setting": "[2]; 32° C. - 12% DBM, 2 days", "value": 130},
      {"measurement": "Average (n = 3)", "setting": "[2]; 32° C. - 12% DBM, 3 days", "value": 100.33},
      {"measurement": "Average (n = 3)", "setting": "[2]; 32° C. - 12% DBM, 4 days", "value": 90.67},
      {"measurement": "Average (n = 3)", "setting": "[2]; 32° C. - 12% DBM, 5 days", "value": 77},
      {"measurement": "Average (n = 3)", "setting": "[2]; 32° C. - 12% DBM, 6 days", "value": 58},
      {"measurement": "LOG10 (CFU/g)", "setting": "[2]; 5° C. - 12% DBM, 0 days", "value": "3.65 LOG10 (CFU/g)"},
      {"measurement": "LOG10 (CFU/g)", "setting": "[2]; 5° C. - 12% DBM, 1 day", "value": "3.56 LOG10 (CFU/g)"},
      {"measurement": "LOG10 (CFU/g)", "setting": "[2]; 5° C. - 12% DBM, 2 days", "value": "3.47 LOG10 (CFU/g)"},
      {"measurement": "LOG10 (CFU/g)", "setting": "[2]; 5° C. - 12% DBM, 3 days", "value": "3.30 LOG10 (CFU/g)"},
      {"measurement": "LOG10 (CFU/g)", "setting": "[2]; 5° C. - 12% DBM, 4 days", "value": "3.13 LOG10 (CFU/g)"},
      {"measurement": "LOG10 (CFU/g)", "setting": "[2]; 5° C. - 12% DBM, 5 days", "value": "3.10 LOG10 (CFU/g)"},
      {"measurement": "LOG10 (CFU/g)", "setting": "[2]; 5° C. - 12% DBM, 6 days", "value": "2.93 LOG10 (CFU/g)"},
      {"measurement": "LOG10 (CFU/g)", "setting": "[2]; 25° C. - 12% DBM, 0 days", "value": "3.65 LOG10 (CFU/g)"},
      {"measurement": "LOG10 (CFU/g)", "setting": "[2]; 25° C. - 12% DBM, 1 day", "value": "3.51 LOG10 (CFU/g)"},
      {"measurement": "LOG10 (CFU/g)", "setting": "[2]; 25° C. - 12% DBM, 2 days", "value": "3.39 LOG10 (CFU/g)"},
      {"measurement": "LOG10 (CFU/g)", "setting": "[2]; 25° C. - 12% DBM, 3 days", "value": "3.30 LOG10 (CFU/g)"},
      {"measurement": "LOG10 (CFU/g)", "setting": "[2]; 25° C. - 12% DBM, 4 days", "value": "3.13 LOG10 (CFU/g)"},
      {"measurement": "LOG10 (CFU/g)", "setting": "[2]; 25° C. - 12% DBM, 5 days", "value": "3.10 LOG10 (CFU/g)"},
      {"measurement": "LOG10 (CFU/g)", "setting": "[2]; 25° C. - 12% DBM, 6 days", "value": "2.93 LOG10 (CFU/g)"},
      {"measurement": "LOG10 (CFU/g)", "setting": "[2]; 32° C. - 12% DBM, 0 days", "value": "3.65 LOG10 (CFU/g)"},
      {"measurement": "LOG10 (CFU/g)", "setting": "[2]; 32° C. - 12% DBM, 1 day", "value": "3.59 LOG10 (CFU/g)"},
      {"measurement": "LOG10 (CFU/g)", "setting": "[2]; 32° C. - 12% DBM, 2 days", "value": "3.46 LOG10 (CFU/g)"},
      {"measurement": "LOG10 (CFU/g)", "setting": "[2]; 32° C. - 12% DBM, 3 days", "value": "3.35 LOG10 (CFU/g)"},
      {"measurement": "LOG10 (CFU/g)", "setting": "[2]; 32° C. - 12% DBM, 4 days", "value": "3.30 LOG10 (CFU/g)"},
      {"measurement": "LOG10 (CFU/g)", "setting": "[2]; 32° C. - 12% DBM, 5 days", "value": "3.23 LOG10 (CFU/g)"},
      {"measurement": "LOG10 (CFU/g)", "setting": "[2]; 32° C. - 12% DBM, 6 days", "value": "3.11 LOG10 (CFU/g)"},
      {"measurement": "Average (n = 3)", "setting": "[3]; 0 days", "value": 199.76},
      {"measurement": "Average (n = 3)", "setting": "[3]; 1 day", "value": 152},
      {"measurement": "Average (n = 3)", "setting": "[3]; 2 days", "value": 121.33},
      {"measurement": "Average (n = 3)", "setting": "[3]; 3 days", "value": 91.67},
      {"measurement": "Average (n = 3)", "setting": "[3]; 4 days", "value": 78},
      {"measurement": "Average (n = 3)", "setting": "[3]; 5 days", "value": 57},
      {"measurement": "Average (n = 3)", "setting": "[3]; 6 days", "value": 38},
      {"measurement": "LOG10 (CFU/g)", "setting": "[3]; 0 days", "value": "3.65 LOG10 (CFU/g)"},
      {"measurement": "LOG10 (CFU/g)", "setting": "[3]; 1 day", "value": "3.53 LOG10 (CFU/g)"},
      {"measurement": "LOG10 (CFU/g)", "setting": "[3]; 2 days", "value": "3.43 LOG10 (CFU/g)"},
      {"measurement": "LOG10 (CFU/g)", "setting": "[3]; 3 days", "value": "3.31 LOG10 (CFU/g)"},
      {"measurement": "LOG10 (CFU/g)", "setting": "[3]; 4 days", "value": "3.24 LOG10 (CFU/g)"},
      {"measurement": "LOG10 (CFU/g)", "setting": "[3]; 5 days", "value": "3.10 LOG10 (CFU/g)"},
      {"measurement": "LOG10 (CFU/g)", "setting": "[3]; 6 days", "value": "2.93 LOG10 (CFU/g)"}
    ]}
  ]
}
